Drawing on BindingDB's records for doi:10.1016/0960-894X(95)00040-Z (1995), this text covers IC50 for one compound.

Molecules are shown by their SMILES.

In general, IC50 refers to the concentration that gives 50% inhibition. Low values mean inhibition by little substance, high ones a need for much substance.

A short description of the assay: Compound was tested for inhibitory activity against prostaglandin synthetase in mouse brain microsomes.

Compound `C1=C(CCN2CCOCC2)c2ccccc2/C1=C/c1ccccc1` [4-(2-{3-[1-Phenyl-meth-(E)-ylidene]-3H-inden-1-yl}-ethyl)-morpholine] registered a half-inhibitory concentration (IC50) of 20 µM.
